This is an account of results in US20250230193A1, “CYCLIC COMPOUND HAVING SELECTIVE KRAS INHIBITORY EFFECT ON HRAS AND NRAS” (CHUGAI SEIYAKU KABUSHIKI KAISHA, priority 2022, published 2025).

In assay [1] the target is GDP-bound HRAS wild-type protein (Homo sapiens, UniProt P01112). Put plainly: Binding to HRAS by surface plasmon resonance (SPR), Single Cycle Kinetics. The following applies: SPR; for HRAS/KRAS (ratio of KD value for GDP-bound HRAS wild-type protein to KD value for KRAS): KD ratio class.
Assay [2] has as its system human lung cancer strain NCI-H441.
Assay [3] has as its target GDP-bound NRAS wild-type protein (Homo sapiens, UniProt P01111). As to the kind of experiment: Binding to NRAS by surface plasmon resonance (SPR), Single Cycle Kinetics. The following applies: SPR; for NRAS/KRAS (ratio of KD value for GDP-bound NRAS wild-type protein to KD value for KRAS): KD ratio class.
In assay [4] the target is GDP-bound KRAS wild-type protein (Homo sapiens, UniProt P01116). Put plainly: Binding to KRAS by surface plasmon resonance (SPR), Single Cycle Kinetics. The following applies: GDP-bound KRAS wild-type protein.
[5] abbreviates: read-out: NCI-H441 IC50, NCI-H441 cells, 4 days, CellTiter-Glo.
[6] abbreviates: SPR Single Cycle Kinetics, 1:1 binding model.

Read-outs that look alike come from different tables or passages of the source.

Chain of GDP-bound NRAS wild-type protein (P01111 whole entry): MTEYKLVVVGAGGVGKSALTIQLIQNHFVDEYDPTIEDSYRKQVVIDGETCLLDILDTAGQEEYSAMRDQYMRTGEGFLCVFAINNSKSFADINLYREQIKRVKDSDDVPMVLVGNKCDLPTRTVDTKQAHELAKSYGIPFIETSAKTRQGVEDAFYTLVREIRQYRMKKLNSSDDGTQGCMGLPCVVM
Chain of GDP-bound HRAS wild-type protein (P01112 whole entry): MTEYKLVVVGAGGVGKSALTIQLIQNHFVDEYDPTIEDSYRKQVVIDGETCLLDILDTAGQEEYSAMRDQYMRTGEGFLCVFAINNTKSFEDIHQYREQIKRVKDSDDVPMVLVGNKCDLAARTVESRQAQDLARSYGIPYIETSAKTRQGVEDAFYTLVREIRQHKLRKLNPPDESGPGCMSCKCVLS

`CCO[C@@H]1C[C@H]2C(=O)NC3(CCC3)C(=O)N(C)[C@@H](C(CC)CC)C(=O)N(C)C(C(C)C)CC(=O)N(C)[C@@H](CC)C(=O)N[C@@H]([C@@H](C)CC)C(=O)N(C)CC(=O)N(C)[C@H]3C/C=C\CCN(C3=O)[C@@H](Cc3ccc(C(F)(F)F)cc3)C(=O)N(C)CC(=O)N[C@@H](CCc3cc(F)c(C(F)(F)F)c(F)c3)C(=O)N2C1` (stereo partly drawn) [PP1589]: in assay [1], the “HRAS/KRAS (ratio of KD value for GDP-bound HRAS wild-type protein to KD value for KRAS)” value was “A (a compound having 10 or more and less than 20 is denoted as A)”. For the same compound, in assay [2] (setting [5]), the IC50 worked out at 86.6 nM. Also, the “NRAS/KRAS (ratio of KD value for GDP-bound NRAS wild-type protein to KD value for KRAS)” value in assay [3] was “A (a compound having 10 or more and less than 20 is denoted as A)”. Also, the Kd in assay [4] (SPR, Single Cycle Kinetics) turned out to be 1.8 nM.

In the case of `CCO[C@@H]1C[C@H]2C(=O)NC3(CC(C)(C)C3)C(=O)N(C)[C@@H](C(CC)CC)C(=O)N(C)C(C(C)C)CC(=O)N(C)[C@@H](CC3CC3)C(=O)N[C@@H]([C@@H](C)CC)C(=O)N(C)CC(=O)N(C)[C@H]3C/C=C\CCN(C3=O)[C@@H](Cc3ccc(C(F)(F)F)cc3)C(=O)N(C)CC(=O)N[C@@H](CCc3cc(F)c(C(F)(F)F)c(F)c3)C(=O)N2C1` (stereo partly drawn) [PP1593], the “HRAS/KRAS (ratio of KD value for GDP-bound HRAS wild-type protein to KD value for KRAS)” value in assay [1] was “A (a compound having 10 or more and less than 20 is denoted as A)”. For the same compound, the half-maximal inhibitory concentration (IC50) in assay [2] (setting [5]) was 144 nM. Moreover, the “NRAS/KRAS (ratio of KD value for GDP-bound NRAS wild-type protein to KD value for KRAS)” value in assay [3] was “A (a compound having 10 or more and less than 20 is denoted as A)”. The Kd in assay [4] (SPR, Single Cycle Kinetics) amounted to 4.3 nM.

As to `CCO[C@@H]1C[C@H]2C(=O)NC3(CCC3)C(=O)N(C)[C@@H](C(CC)CC)C(=O)N(C)C(C(C)C)CC(=O)N(C)[C@@H](CC3CC3)C(=O)N[C@@H]([C@@H](C)CC)C(=O)N(C)CC(=O)N(C)[C@H]3C/C=C\CCN(C3=O)[C@@H](Cc3ccc(C(F)(F)F)cc3)C(=O)N(C)CC(=O)N[C@@H](CCc3cc(F)c(C(F)(F)F)c(F)c3)C(=O)N2C1` (stereo partly drawn) [PP1595], the “HRAS/KRAS (ratio of KD value for GDP-bound HRAS wild-type protein to KD value for KRAS)” value in assay [1] is “A (a compound having 10 or more and less than 20 is denoted as A)”. Besides, the IC50 in assay [2] (setting [5]) came to 64.6 nM. In assay [3], the “NRAS/KRAS (ratio of KD value for GDP-bound NRAS wild-type protein to KD value for KRAS)” value was “A (a compound having 10 or more and less than 20 is denoted as A)”. The compound further came in with a Kd in assay [4] (SPR, Single Cycle Kinetics) of 2.3 nM.

For the compound `CCO[C@@H]1C[C@H]2C(=O)NC3(CC(F)(F)C3)C(=O)N(C)[C@@H](C3CCCC3)C(=O)N(C)C(C(C)C)CC(=O)N(C)[C@@H](CC3CC3)C(=O)N[C@@H]([C@@H](C)CC)C(=O)N(C)CC(=O)N(C)[C@H]3C/C=C\CCN(C3=O)[C@@H](Cc3ccc(C(F)(F)F)cc3)C(=O)N(C)CC(=O)N[C@@H](CCc3cc(F)c(C(F)(F)F)c(F)c3)C(=O)N2C1` (stereo partly drawn) [PP1598], the “HRAS/KRAS (ratio of KD value for GDP-bound HRAS wild-type protein to KD value for KRAS)” value in assay [1] is “A (a compound having 10 or more and less than 20 is denoted as A)”. In assay [2] (setting [5]), the IC50 stood at 36.6 nM. For the same compound, the “NRAS/KRAS (ratio of KD value for GDP-bound NRAS wild-type protein to KD value for KRAS)” value in assay [3] is “A (a compound having 10 or more and less than 20 is denoted as A)”. In assay [4] (SPR, Single Cycle Kinetics), this compound displayed a Kd of 0.76 nM.

Turning to `CCO[C@@H]1C[C@H]2C(=O)NC3(CCC3)C(=O)N(C)[C@@H](C3CCCC3)C(=O)N(C)[C@H](C(=O)N(C)CC)CC(=O)N(C)[C@H]3CCCC/C=C/c4ccc(cc4)C[C@@H](C(=O)N(C)CC(=O)N[C@@H](CCc4ccc(C(F)(F)F)c(OC)c4)C(=O)N2C1)N1CC/C=C\C[C@@H](C1=O)N(C)C(=O)CN(C)C(=O)[C@H]([C@@H](C)CC)NC3=O` [PP1828], the “HRAS/KRAS (ratio of KD value for HRAS to KD value for KRAS)” value in assay [1] (KD ratio, GDP-bound HRAS wild-type vs GDP-bound KRAS wild-type) is “B (a compound having 3 or more and less than 10 is denoted as B)”. For the same compound, in assay [2], the IC50 was determined as 1.9 nM. Besides, the “NRAS/KRAS (ratio of KD value for NRAS to KD value for KRAS)” value in assay [3] (KD ratio, GDP-bound NRAS wild-type vs GDP-bound KRAS wild-type) is “A (a compound having 10 or more and less than 20 is denoted as A)”. This compound also gave a Kd in assay [4] (setting [6]) of 0.039 nM.

As for `CC[C@H](C)[C@@H]1NC(=O)[C@@H](CC(C)C)N(C)C(=O)CSC[C@H](C(=O)N(C)C)N(C)C(=O)[C@@H](C2CCCC2)N(C)C(=O)C2(CCCC2)NC(=O)[C@@H]2CCCN2C(=O)[C@H](CCc2cc(F)c(C(F)(F)F)c(F)c2)NC(=O)CN(C)C(=O)[C@H](Cc2ccc(C(F)(F)F)cc2)N2CC=CC[C@@H](C2=O)N(C)C(=O)CN(C)C1=O` [PP3108], the “HRAS/KRAS (ratio of KD value with respect to GDP-bound HRAS wild-type protein to KD value with respect to KRAS)” value in assay [1] (KD ratio HRAS/KRAS, GDP-bound wild-type proteins) was “B (a compound having 3 or more and less than 10 is denoted as B)”. In assay [2], this compound returned an IC50 of 9250 nM. Moreover, the “NRAS/KRAS (ratio of KD value with respect to GDP-bound NRAS wild-type protein to KD value with respect to KRAS)” value in assay [3] (KD ratio NRAS/KRAS, GDP-bound wild-type proteins) was “C (A compound having a KD ratio of 0.1 or more and less than 3 is denoted as C)”. This compound also showed a Kd in assay [4] (setting [6]) of 870 nM.
